Read-outs that look alike come from different tables or passages of the source.
Columns and labels:
Pythium ultimum = assay: Threshold concentration test for use of the compounds against Pythium ultimum (infested soil, garden peas); assay type: in vivo; design: key to root evaluation (1-4): 4: white roots without fungous necrosis; 3: white roots, minor fungous necrosis; 2: brown roots, already more pronounced fungous necrosis; 1: heavy fungous necrosis, roots rotted; details: for root evaluation (1-4): 3 weeks; for number of sound peas: 20 grains per dish, 3 weeks at 20-24° C.
Procedure, shortened: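 Garden pea seeds, 20 per dish, went straight into Pythium ultimum-infested soil into which 20% pulverulent formulations had been uniformly blended. Sound plants counted and roots rated 1–4 after three weeks of hothouse growth at 20–24 °C.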

Tilletia caries = assay: Treatment of oat seeds infested with Tilletia caries (spore germination); assay type: in vivo
[1] = test system: Helminthosporium gramineum; assay: Seed treatment in open field tests for infestation by Helminthosporium gramineum (barley); assay type: in vivo; details: summer barley; 50 g active agent/100 kg barley; about 3 months
Description: Seed treatment in open field tests for infestation by Helminthosporium gramineum
The active agents were used in the form of pulverulent compositions. After about 8 months in case of winter barley and after about 3 months in case of summer barley the infested plants were counted and the activity was calculated by the formula [formula]

Plasmopara viticola = assay: Prophylactic leaf treatment of grapevines in the hothouse against Plasmopara viticola; assay type: in vivo
Procedure, shortened: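 Activity derived from average percentage of leaf surface infested per treatment. Plants with 5–8 leaves received preventive spray (20% spray powder formulation), then undersides inoculated with ~20,000 sporangia/ml; held at 22–24 °C with full humidity, reduced to 30–70% for 3–4 days, then saturated one day.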

Botrytis cinerea [2] = assay: Prophylactic leaf treatment of tomato plants against Botrytis cinerea; assay type: in vivo; details: concentration of 0.025 of the active agent (unit not given)
Helminthosporium gram = details: about 5 weeks
Description: Treatment of barley seeds infested with Helminthosporium gram
After emergence, the plants were subjected to illumination for 12 hours per day. After about 5 weeks the infested plants were counted and the total number of plants for each test were also counted. The active agents tested were used as pulverulent compositions.

Fusarium avenaceum = assay: Threshold concentration test in case of Fusarium avenaceum (infested soil, garden peas); assay type: in vivo; details: for number of sound peas: 20 grains per dish, 18 days at 20-24° C.; for root evaluation (1-4): 18 days
Procedure, shortened: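 Soil heavily infested with Fusarium avenaceum was mixed uniformly with a 20% powder formulation of active agent, then sown immediately with 20 garden pea seeds ('Wunder von Kelvedon') per dish. After 18 days in a greenhouse at 20° to 24° C., sound plants were counted and roots scored on a 1–4 scale.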

Piricularia oryzae = assay type: in vivo; details: concentration of active agent 0.1 (percentages); 5 days
Venturia inaequalis = assay: Prophylactic leaf treatment of apples in open field test against Venturia inaequalis; assay type: in vivo; details: 3 weeks
Penicillium digitatum = assay: Inhibition of fungus in a nutrient solution: Penicillium digitatum; assay type: cell-based; details: 6 days at 21-23° C.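 Note: 0 means no fungus growth and higher grades mean more surface covered.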
Botrytis cinerea [3] = assay: Inhibition of fungus in a nutrient solution: Botrytis cinerea; assay type: cell-based; details: 6 days at 21-23° C.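 Note: 0 means no fungus growth and higher grades mean more surface covered.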
Alternaria solani = assay: Inhibition of fungus in a nutrient solution: Alternaria solani; assay type: cell-based; details: 6 days at 21-23° C.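 Note: 0 means no fungus growth and higher grades mean more surface covered.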
[4] = concentration of active agent 0.001 (unit not given)
[5] = concentration of active agent 0.005 (unit not given)
[6] = concentration of active agent 0.025 (unit not given)
[7] = concentration of active agent 0.005 (in gram)
[8] = concentration of active agent 0.025 (in gram)

Compound	root evaluation (1-4) (Pythium ultimum; 20 mg/l soil)	number of sound peas (Pythium ultimum; 20 mg/l soil)	root evaluation (1-4) (Pythium ultimum; 40 mg/l soil)	number of sound peas (Pythium ultimum; 40 mg/l soil)	root evaluation (1-4) (Pythium ultimum; 80 mg/l soil)	number of sound peas (Pythium ultimum; 80 mg/l soil)	% activity (Tilletia caries; 10 g active agent per 100 kg) [%]	% activity (Tilletia caries; 20 g active agent per 100 kg) [%]	% activity (Tilletia caries; 50 g active agent per 100 kg) [%]	% activity (Plasmopara viticola; [4]) [%]	% activity (Plasmopara viticola; [5]) [%]	% activity (Plasmopara viticola; [6]) [%]	% activity (Botrytis cinerea [2]) [%]	% activity (Helminthosporium gram; 50 g active agent per 100 kg) [%]	also measured
CCS(=O)(=O)c1nnc(C(=O)N2CCCC2)s1 [5-ethylsulfonyl-1,3,4-thiadiazole-2-carboxylic acid-N,N-tetramethylene-amide]	2	14	4	20	4	20	100	100	100	91	99	100	75	99	% activity [1]: 100%; % activity (Helminthosporium gram; 10 g active agent per 100 kg): 98%; % activity (Helminthosporium gram; 20 g active agent per 100 kg): 100%
CCCCCCS(=O)(=O)c1nnc(C#N)s1 [5-hexylsulfonyl-1,3,4-thiadiazole-2-carbonitrile]	–	–	–	–	–	–	–	–	90	–	–	90	86	–	number of sound peas (Fusarium avenaceum; 25 mg/l soil): 19; root evaluation (1-4) (Fusarium avenaceum; 25 mg/l soil): 4; number of sound peas (Fusarium avenaceum; 50 mg/l soil): 19; root evaluation (1-4) (Fusarium avenaceum; 50 mg/l soil): 4; number of sound peas (Fusarium avenaceum; 100 mg/l soil): 19; root evaluation (1-4) (Fusarium avenaceum; 100 mg/l soil): 4
CCCCCCS(=O)(=O)c1nnc(C(N)=O)s1 [5-hexylsulfonyl-1,3,4-thiadiazole-2-carboxamide]	–	–	–	–	–	–	–	–	98	–	–	90	87	–	number of sound peas (Fusarium avenaceum; 25 mg/l soil): 7; root evaluation (1-4) (Fusarium avenaceum; 25 mg/l soil): 1; number of sound peas (Fusarium avenaceum; 50 mg/l soil): 12; root evaluation (1-4) (Fusarium avenaceum; 50 mg/l soil): 2; number of sound peas (Fusarium avenaceum; 100 mg/l soil): 15; root evaluation (1-4) (Fusarium avenaceum; 100 mg/l soil): 3
CCNC(=O)c1nnc([S+](C)[O-])s1 (centres unmarked) [5-methylsulfinyl-1,3,4-thiadiazole-2-carboxylic acid-ethylamide]	2	18	4	18	4	19	–	100	100	–	–	96	75	100	% activity (Piricularia oryzae): 90%; % activity (Helminthosporium gram; 10 g active agent per 100 kg): 98%; % activity (Helminthosporium gram; 20 g active agent per 100 kg): 99%
CCCCNC(=O)c1nnc(S(C)(=O)=O)s1 [5-methylsulfonyl-1,3,4-thiadiazole-2-carboxylic acid-butylamide]	2	14	4	15	4	16	99.2	100	100	83	99.1	–	76	90	% activity (Piricularia oryzae): 90%; % activity [1]: 99.3%; % activity (Venturia inaequalis; [7]): 94%; % activity (Venturia inaequalis; [8]): 99%
CCCNC(=O)c1nnc(S(C)(=O)=O)s1 [5-methylsulfonyl-1,3,4-thiadiazole-2-carboxylic acid-propylamide]	4	15	4	15	4	15	99.5	100	100	–	82	95	76	93	% activity (Piricularia oryzae): 90%; % activity [1]: 100%; % activity (Venturia inaequalis; [7]): 98%; % activity (Venturia inaequalis; [8]): 99.7%
CCCCCS(=O)(=O)c1nnc(C#N)s1 [5-pentylsulfonyl-1,3,4-thiadiazole-2-carbonitrile]	–	–	–	–	–	–	–	–	90	–	–	90	86	–	number of sound peas (Fusarium avenaceum; 25 mg/l soil): 20; root evaluation (1-4) (Fusarium avenaceum; 25 mg/l soil): 4; number of sound peas (Fusarium avenaceum; 50 mg/l soil): 20; root evaluation (1-4) (Fusarium avenaceum; 50 mg/l soil): 4; number of sound peas (Fusarium avenaceum; 100 mg/l soil): 19; root evaluation (1-4) (Fusarium avenaceum; 100 mg/l soil): 4
CCCCNC(=O)c1nnc([S+]([O-])CCC)s1 (centres unmarked) [5-propylsulfinyl-1,3,4-thiadiazole-2-carboxylic acid-butylamide]	–	–	–	–	–	–	–	100	100	–	91	99.1	80	–	–
CCCCCCNC(=O)c1nnc([S+]([O-])CCC)s1 (centres unmarked) [5-propylsulfinyl-1,3,4-thiadiazole-2-carboxylic acid-hexylamide]	–	–	–	–	–	–	–	100	100	95	99.1	100	80	–	–
CCC[S+]([O-])c1nnc(C(=O)NC(C)CC)s1 (centres unmarked) [5-propylsulfinyl-1,3,4-thiadiazole-2-carboxylic acid-sec.-butylamide]	–	–	–	–	–	–	–	100	100	86	92	92	80	94	number of sound peas (Fusarium avenaceum; 25 mg/l soil): 9; root evaluation (1-4) (Fusarium avenaceum; 25 mg/l soil): 1; number of sound peas (Fusarium avenaceum; 50 mg/l soil): 17; root evaluation (1-4) (Fusarium avenaceum; 50 mg/l soil): 4; number of sound peas (Fusarium avenaceum; 100 mg/l soil): 17; root evaluation (1-4) (Fusarium avenaceum; 100 mg/l soil): 4
CCCS(=O)(=O)c1nnc(C(N)=O)s1 [5-propylsulfonyl-1,3,4-thiadiazole-2-carboxamide]	1	12	4	19	4	17	100	100	100	–	89	95	94	–	–
CCCCCCNC(=O)c1nnc(S(=O)(=O)CCC)s1 [5-propylsulfonyl-1,3,4-thiadiazole-2-carboxylic acid-hexylamide]	–	–	–	–	–	–	–	100	100	88	98	100	78	–	% activity (Piricularia oryzae): 95%
CCCNC(=O)c1nnc(S(=O)(=O)CCC)s1 [5-propylsulfonyl-1,3,4-thiadiazole-2-carboxylic acid-propylamide]	1	10	4	16	4	16	99.5	99.7	100	–	–	93	80	–	–
O=C1C2CC=CCC2C(=O)N1SC(Cl)(Cl)Cl (centres unmarked) [N-trichloromethylmercapto-tetrahydro-phthalimide, reference compound]	1	1	1	2	2	8	–	–	–	–	–	–	–	–	fungus development on the surface of the nutrient solution (0-5) (Penicillium digitatum; 0.002%): 4 (30 to 60% of the surface covered by the fungus turf); fungus development on the surface of the nutrient solution (0-5) (Penicillium digitatum; 0.004%): 4 (30 to 60% of the surface covered by the fungus turf); fungus development on the surface of the nutrient solution (0-5) (Botrytis cinerea [3]; 0.002%): 4 (30 to 60% of the surface covered by the fungus turf); fungus development on the surface of the nutrient solution (0-5) (Botrytis cinerea [3]; 0.004%): 4 (30 to 60% of the surface covered by the fungus turf); fungus development on the surface of the nutrient solution (0-5) (Alternaria solani; 0.002%): 4 (30 to 60% of the surface covered by the fungus turf); fungus development on the surface of the nutrient solution (0-5) (Alternaria solani; 0.004%): 4 (30 to 60% of the surface covered by the fungus turf)

Source: US4281121A, “1,3,4-Thiadiazole-2-carboxylic acid derivatives, process for making the same and fungicidal and nematocidal compositions containing same” (Schering Aktiengesellschaft, priority 1978, dated 1981)
